Assay [1] has as its target T1, porcine pancreatic α-amylase (Sus scrofa, UniProt P00690).
T1 construct: α-amylase from porcine pancreas; purchased Sigma-Aldrich (Taufkirchen, Germany); host or cells: porcine pancreas
T1 sequence (P00690 16-511): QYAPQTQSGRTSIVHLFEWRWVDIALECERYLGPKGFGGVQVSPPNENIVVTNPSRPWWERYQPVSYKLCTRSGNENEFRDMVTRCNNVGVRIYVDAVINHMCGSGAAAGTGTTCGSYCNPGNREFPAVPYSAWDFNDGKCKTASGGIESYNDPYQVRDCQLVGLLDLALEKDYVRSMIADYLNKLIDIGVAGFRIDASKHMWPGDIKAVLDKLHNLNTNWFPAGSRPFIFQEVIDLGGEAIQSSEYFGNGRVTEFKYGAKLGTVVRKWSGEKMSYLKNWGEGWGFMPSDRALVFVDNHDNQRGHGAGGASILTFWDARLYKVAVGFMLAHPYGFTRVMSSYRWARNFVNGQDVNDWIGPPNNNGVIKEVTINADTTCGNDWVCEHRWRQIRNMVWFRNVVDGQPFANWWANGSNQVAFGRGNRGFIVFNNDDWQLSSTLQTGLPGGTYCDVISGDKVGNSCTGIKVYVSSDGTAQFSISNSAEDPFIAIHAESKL
The assay can be described thus: In vitro α-amylase inhibition study (CNPG3 substrate, absorbance 405 nm). In kind it is biochemical. The following applies: 2 mM of single substance; mean ± SD, n = 3. On the procedure:
The α-amylase inhibition assay was based on a previously described spectrophotometric method. […] Briefly, 20 μL aliquots of the sample (in five different concentrations), the positive control, or the negative control were each mixed with 70 μL of 40 mM phosphate buffered saline (PBS) at pH 6.9 containing 30 U/mL of porcine pancreatic α-amylase and incubated in a 96-well microplate at 37 °C for 10 min. After pre-incubation, 100 μL of substrate solution (40 mM PBS with 4 mM 2-chloro-4-nitrophenyl-α-D-maltotrioside) was added, and the resulting mixtures were incubated at 37 °C for 8 min. Their absorbance was then measured at λ 405 nm using a microplate reader (Biotek, Bad Friedrichshall, Germany). Each sample was measured in triplicate.

The test system of assay [2] is α-glucosidase from Saccharomyces cerevisiae. The assay can be described thus: In vitro α-glucosidase inhibition study (pNPG substrate, absorbance 405 nm). The class given is biochemical. The note with it: 2 mM of single substance; mean ± SD, n = 3. The procedure:
The α-glucosidase inhibition assay used 4-nitrophenyl-α-D-glucopyranoside as substrate. 20 μL aliquots of the sample (in five different concentrations) or negative and positive control solutions were each mixed with 70 μL enzyme solution (1 U/mL) in 0.1 M PBS (pH 6.8). After incubation at 25 °C for 10 min, 100 μL of 4 mM pNPG solution in PBS was added and incubated in a 96-well microplate for 5 min at 25 °C. The absorbance was measured at λ 405 nm using a microplate reader (Biotek, Bad Friedrichshall, Germany). Each sample was measured in triplicate.

Regarding `O=C1O[C@H]2[C@@H]3OC(=O)c4cc(O)c(O)c(O)c4-c4c(O)c(O)c5oc(=O)c6c(c(O)c(O)c7oc(=O)c4c5c76)-c4c(cc(O)c(O)c4O)C(=O)OC[C@H]3OC(O)[C@@H]2OC(=O)c2cc(O)c(O)c(O)c2-c2c1cc(O)c(O)c2O` (mixture of isomers) [punicalagin], the “Inhibition (%) of α-amylase” value in assay [1] is 4.8 ± 2.6%. In addition, the “Inhibition (%) of α-glucosidase” value in assay [2] worked out at 11.5 ± 1.0%. `O=C1OC[C@H]2OC(O)[C@H](O)[C@@H](O)[C@@H]2OC(=O)c2cc(O)c(O)c(O)c2-c2c(O)c(O)c3oc(=O)c4c(c(O)c(O)c5oc(=O)c2c3c54)-c2c1cc(O)c(O)c2O` (mixture of isomers) [punicalin]: the “Inhibition (%) of α-amylase” value in assay [1] worked out at 3.8 ± 0.2%. Besides, the “Inhibition (%) of α-glucosidase” value in assay [2] is 8.7 ± 0.6%. As to `O=C(/C=C/c1ccc(O)c(O)c1)O[C@@H]1C[C@](O)(C(=O)O)C[C@@H](O)[C@H]1O` [3-caffeoylquinic acid], the “Inhibition (%) of α-amylase” value in assay [1] is 13.8 ± 1.4%. For the same molecule, the “Inhibition (%) of α-glucosidase” value in assay [2] is given as 3.6 ± 2.2%. For `O=C(/C=C/c1ccc(O)c(O)c1)O[C@H]1[C@H](O)C[C@](O)(C(=O)O)C[C@H]1O` [4-caffeoylquinic acid] the same measures were 16.0 ± 3.1% and 4.5 ± 3.3%. Regarding `Oc1cc(O)c2cc(O)c(-c3ccc(O)c(O)c3)[o+]c2c1` [Cyanidin], in assay [2], the “Inhibition (%) of α-glucosidase” value stood at 35.5 ± 2.4%. Consider `O=C(/C=C/c1ccc(O)c(O)c1)O[C@@H](C(=O)O)[C@@H](O)C(=O)O` [caftaric acid], for which the “Inhibition (%) of α-amylase” value in assay [1] is listed as 11.5 ± 2.5%. The “Inhibition (%) of α-glucosidase” value in assay [2] stood at 4.6 ± 2.2%. The matching figures for `O=C(/C=C/c1ccc(O)c(O)c1)O[C@@H]1C[C@](O)(C(=O)O)C[C@@H](O)[C@H]1O` [chlorogenic acid]: 20.3 ± 2.3% and 1.6 ± 3.1%. Regarding `OC[C@H]1O[C@@H](Oc2cc3c(O[C@@H]4O[C@H](CO)[C@@H](O)[C@H](O)[C@H]4O)cc(O)cc3[o+]c2-c2ccc(O)c(O)c2)[C@H](O)[C@@H](O)[C@@H]1O` [cyanidin 3,5-diglucoside], the “Inhibition (%) of α-glucosidase” value in assay [2] was determined as 4.9 ± 5.2%. In the case of `Oc1cc(O)c2cc(O[C@@H]3OC[C@H](O)[C@H](O)[C@H]3O)c(-c3ccc(O)c(O)c3)[o+]c2c1` [cyanidin 3-arabinoside], the “Inhibition (%) of α-amylase” value in assay [1] worked out at 18.7 ± 1.2%. Regarding `OC[C@H]1O[C@@H](Oc2cc3c(O)cc(O)cc3[o+]c2-c2ccc(O)c(O)c2)[C@H](O)[C@@H](O)[C@@H]1O` [cyanidin 3-glucoside], the “Inhibition (%) of α-glucosidase” value in assay [2] turned out to be 7.8 ± 5.5%. With `C[C@@H]1O[C@@H](OC[C@H]2O[C@@H](Oc3cc4c(O)cc(O)cc4[o+]c3-c3ccc(O)c(O)c3)[C@H](O)[C@@H](O)[C@@H]2O)[C@H](O)[C@H](O)[C@H]1O` [cyanidin 3-rutinoside], the “Inhibition (%) of α-amylase” value in assay [1] is on record as 7.6 ± 1.8%. Turning to `OC[C@H]1O[C@@H](Oc2cc3c(O)cc(O)cc3[o+]c2-c2cc(O)c(O)c(O)c2)[C@H](O)[C@@H](O)[C@@H]1O` [delphinidin glucoside, Delphinidin 3-glucoside], the “Inhibition (%) of α-amylase” value in assay [1] worked out at 12.7 ± 1.9%.

Turning to `O=c1oc2c(O)c(O)cc3c(=O)oc4c(O)c(O)cc1c4c23` [ellagic acid], the “Inhibition (%) of α-amylase” value in assay [1] was 11.0 ± 0.8%. Besides, the “Inhibition (%) of α-glucosidase” value in assay [2] is listed as 6.0 ± 0.8%.

For `O=c1c(O[C@@H]2O[C@H](CO)[C@@H](O)[C@H](O)[C@H]2O)c(-c2ccc(O)cc2)oc2cc(O)cc(O)c12` [kaempferol 3-glucoside], the “Inhibition (%) of α-amylase” value in assay [1] turned out to be 30.3 ± 2.2%. Also, the “Inhibition (%) of α-glucosidase” value in assay [2] was found to be 13.2 ± 0.7%.

Take `COc1cc(-c2[o+]c3cc(O)cc(O)c3cc2O[C@@H]2O[C@H](CO)[C@@H](O)[C@H](O)[C@H]2O)cc(OC)c1O` [malvidin glucoside, Malvidin 3-glucoside]: in assay [1], the “Inhibition (%) of α-amylase” value is listed as 9.1 ± 5.6%.

With `COc1cc(-c2[o+]c3cc(O)cc(O)c3cc2O[C@@H]2O[C@H](CO)[C@@H](O)[C@H](O)[C@H]2O)ccc1O` [peonidin glucoside, Peonidin 3-glucoside], in assay [1], the “Inhibition (%) of α-amylase” value was determined as 11.3 ± 0.5%. The same measure, in the same setting: with `COc1cc(-c2[o+]c3cc(O)cc(O)c3cc2O[C@@H]2O[C@H](CO)[C@@H](O)[C@H](O)[C@H]2O)cc(O)c1O` [petunidin glucoside, Petunidin 3-glucoside] the figure was 7.7 ± 2.5%.

For `O=c1c(O[C@@H]2O[C@H](CO)[C@H](O)[C@H](O)[C@H]2O)c(-c2ccc(O)c(O)c2)oc2cc(O)cc(O)c12` [quercetin 3-galactoside], in assay [1], the “Inhibition (%) of α-amylase” value was determined as 28.0 ± 1.0%. In addition, the “Inhibition (%) of α-glucosidase” value in assay [2] is on record as 8.3 ± 1.2%.
